Measured values reported in patent US10765114B2, “4-amino-6-(pyridyl and 2-substitutedphenyl)-picolinates and 6-amino-2-(pyridyl and 2-substitutedphenyl)-pyrimidine-4-carboxylates and their use as herbicides” (Dow AgroSciences LLC, priority 2013, dated 2020).
Like-named read-outs stand apart in the source and are kept apart here.

Key:
[1] = tested on: Key Grass and Sedge Weeds as well as Grass Crops; assay: Post-Emergent Test II (Table 6); type: in vivo; settings: post-emergence, 336 h, 14 days after application; for pest or weed control at 54.5 g/ha: 54.5 g ai/ha; for pest or weed control at 109 g/ha: 109 g ai/ha
Summary of the method: (§1)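 Post-emergence greenhouse spray, 1st-2nd true leaf stage; track sprayer, 187 L/ha; acetone/DMSO stock diluted in aqueous acetone/IPA/DMSO with Atplus 411F and Triton X-155; rates 1× to 1/16×; subirrigated; visual injury 0 (none) to 100% (complete kill) at 14 days.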

[2] = tested on: Key Broadleaf Weed and Crop Species; assay: Post-Emergent Test II (Table 5); type: in vivo; settings: post-emergence, 336 h; for pest or weed control at 54.5 g/ha: application rate 54.5 (kg ai/ha; footnote: g ai/ha); for pest or weed control at 109 g/ha: application rate 109 (kg ai/ha; footnote: g ai/ha)
Summary of the method: as §1

[3] = DIGSA: crabgrass (Digitaria sanguinalis), read-out: Visual Growth Reduction (%) 14 Days After Application DIGSA
[4] = ECHSS, read-out: Visual Growth Reduction (%) 14 Days After Application ECHSS
[5] = ORYSS (crop), read-out: Visual Growth Reduction (%) 14 Days After Application ORYSS
[6] = SETFA: giant foxtail (Setaria faberi), read-out: Visual Growth Reduction (%) 14 Days After Application SETFA
[7] = SORVU: grain sorghum (Sorghum vulgare), read-out: Visual Growth Reduction (%) 14 Days After Application SORVU
[8] = TRZSS (crop), read-out: Visual Growth Reduction (%) 14 Days After Application TRZSS
[9] = ZEAMX: maize, corn (Zea mays), read-out: Visual Growth Reduction (%) 14 Days After Application ZEAMX
[10] = Abutilon theophrasti, ABUTH: velvetleaf (Abutilon theophrasti), read-out: Visual Growth Reduction (%) 14 Days After Application ABUTH
[11] = Amaranthus retroflexus, AMARE: redroot pigweed (Amaranthus retroflexus), read-out: Visual Growth Reduction (%) 14 Days After Application AMARE
[12] = Brassica napus, BRSSS: oilseed rape, canola (Brassica napus), read-out: Visual Growth Reduction (%) 14 Days After Application BRSSS
[13] = Chenopodium album, CHEAL: lambsquarters (Chenopodium album), read-out: Visual Growth Reduction (%) 14 Days After Application CHEAL
[14] = Euphorbia heterophylla, EPHHL: wild poinsettia (Euphorbia heterophylla), read-out: Visual Growth Reduction (%) 14 Days After Application EPHHL
[15] = Helianthus annuus, HELAN: sunflower (Helianthus annuus), read-out: Visual Growth Reduction (%) 14 Days After Application HELAN
[16] = Viola tricolor, VIOTR: wild pansy (Viola tricolor), read-out: Visual Growth Reduction (%) 14 Days After Application VIOTR

COC(=O)c1nc(-c2ccc(Cl)c(F)c2SC)c(F)c(N)c1Cl [Compound 18]
60 to 74%: pest or weed control at 54.5 g/ha [2, 10] | pest or weed control at 109 g/ha [2, 10]
75 to 84%: pest or weed control at 54.5 g/ha [2, 11] | pest or weed control at 54.5 g/ha [2, 15] | pest or weed control at 109 g/ha [2, 15]
85 to 94%: pest or weed control at 54.5 g/ha [2, 13] | pest or weed control at 109 g/ha [2, 13]
0 to 29%: pest or weed control at 54.5 g/ha [1, 3] | pest or weed control at 109 g/ha [1, 3] | pest or weed control at 54.5 g/ha [1, 4] | pest or weed control at 109 g/ha [1, 4] | pest or weed control at 54.5 g/ha [1, 5] | pest or weed control at 109 g/ha [1, 5] | pest or weed control at 54.5 g/ha [1, 6] | pest or weed control at 109 g/ha [1, 6] | pest or weed control at 54.5 g/ha [1, 7] | pest or weed control at 109 g/ha [1, 7] | pest or weed control at 54.5 g/ha [1, 8] | pest or weed control at 109 g/ha [1, 8] | pest or weed control at 54.5 g/ha [1, 9] | pest or weed control at 109 g/ha [1, 9] | pest or weed control at 54.5 g/ha [2, 12] | pest or weed control at 109 g/ha [2, 12] | pest or weed control at 54.5 g/ha [2, 14] | pest or weed control at 109 g/ha [2, 14] | pest or weed control at 54.5 g/ha [2, 16] | pest or weed control at 109 g/ha [2, 16]
95 to 100%: pest or weed control at 54.5 g/ha ([1]; CYPSS, read-out: Visual Growth Reduction (%) 14 Days After Application CYPSS) | pest or weed control at 109 g/ha [2, 11]
